Source: patent publication US20240246942A1, “KINASE INHIBITORS FOR THE TREATMENT OF NEURODEGENERATIVE DISEASES” (priority 2020, published 2024)

Key:
Experiment in all cases: biochemical
[1] = target: T1, panel of 374 wild-type kinases (Homo sapiens, UniProt Q9H2K8); conditions: read-out: % Enzyme Activity (relative to DMSO controls), kinase TAOK3/JIK
T1 construct: purchased Reaction Biology Corporation
T1 sequence (Q9H2K8 1-898): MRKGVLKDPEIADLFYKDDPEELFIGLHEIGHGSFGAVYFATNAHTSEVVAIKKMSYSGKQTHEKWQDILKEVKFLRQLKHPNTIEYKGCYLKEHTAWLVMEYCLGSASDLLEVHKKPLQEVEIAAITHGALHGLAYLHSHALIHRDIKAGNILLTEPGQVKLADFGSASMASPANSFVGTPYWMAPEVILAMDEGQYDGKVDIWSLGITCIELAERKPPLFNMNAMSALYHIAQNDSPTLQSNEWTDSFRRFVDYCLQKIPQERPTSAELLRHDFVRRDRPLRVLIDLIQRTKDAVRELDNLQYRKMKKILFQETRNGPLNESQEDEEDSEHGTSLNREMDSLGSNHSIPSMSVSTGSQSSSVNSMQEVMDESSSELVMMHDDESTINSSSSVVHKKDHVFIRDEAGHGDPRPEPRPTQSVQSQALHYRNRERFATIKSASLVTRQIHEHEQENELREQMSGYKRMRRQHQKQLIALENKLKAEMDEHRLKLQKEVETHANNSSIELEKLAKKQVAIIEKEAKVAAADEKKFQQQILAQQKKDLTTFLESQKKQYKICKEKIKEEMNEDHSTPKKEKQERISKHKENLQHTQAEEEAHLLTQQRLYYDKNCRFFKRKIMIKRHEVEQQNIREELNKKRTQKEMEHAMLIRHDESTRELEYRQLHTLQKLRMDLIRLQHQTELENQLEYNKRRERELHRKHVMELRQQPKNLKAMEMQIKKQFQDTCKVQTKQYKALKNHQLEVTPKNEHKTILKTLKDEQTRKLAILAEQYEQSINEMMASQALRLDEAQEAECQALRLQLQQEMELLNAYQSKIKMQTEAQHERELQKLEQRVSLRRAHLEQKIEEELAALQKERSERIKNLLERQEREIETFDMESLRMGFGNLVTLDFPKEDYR

[2] = target: T2, panel of 374 wild-type kinases (Homo sapiens, UniProt Q6P3R8); conditions: read-out: % Enzyme Activity (relative to DMSO controls), NEK5
T2 construct: purchased Reaction Biology Corporation
T2 sequence (Q6P3R8 1-708): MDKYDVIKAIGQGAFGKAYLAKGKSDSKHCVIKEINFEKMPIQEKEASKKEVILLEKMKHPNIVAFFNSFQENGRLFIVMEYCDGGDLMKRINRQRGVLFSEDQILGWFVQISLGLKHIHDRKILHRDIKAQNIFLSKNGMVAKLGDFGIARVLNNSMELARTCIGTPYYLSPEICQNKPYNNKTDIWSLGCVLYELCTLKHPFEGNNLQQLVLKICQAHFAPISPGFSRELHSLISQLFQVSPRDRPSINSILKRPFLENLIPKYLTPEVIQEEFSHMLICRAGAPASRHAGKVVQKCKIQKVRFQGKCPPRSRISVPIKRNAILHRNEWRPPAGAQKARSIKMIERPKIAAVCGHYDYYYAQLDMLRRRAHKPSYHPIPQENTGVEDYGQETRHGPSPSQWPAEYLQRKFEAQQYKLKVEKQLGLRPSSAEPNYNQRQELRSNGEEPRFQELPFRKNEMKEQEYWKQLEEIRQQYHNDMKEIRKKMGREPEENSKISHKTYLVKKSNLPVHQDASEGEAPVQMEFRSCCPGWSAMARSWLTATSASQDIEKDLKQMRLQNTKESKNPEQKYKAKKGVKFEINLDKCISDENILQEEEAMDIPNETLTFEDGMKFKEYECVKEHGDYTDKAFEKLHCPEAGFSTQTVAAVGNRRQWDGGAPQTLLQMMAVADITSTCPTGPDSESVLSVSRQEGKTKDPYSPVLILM

[3] = target: T3, panel of 374 wild-type kinases (Homo sapiens, UniProt O14920); conditions: read-out: % Enzyme Activity (relative to DMSO controls), IKKb/IKBKB
T3 construct: purchased Reaction Biology Corporation
T3 sequence (O14920 1-756): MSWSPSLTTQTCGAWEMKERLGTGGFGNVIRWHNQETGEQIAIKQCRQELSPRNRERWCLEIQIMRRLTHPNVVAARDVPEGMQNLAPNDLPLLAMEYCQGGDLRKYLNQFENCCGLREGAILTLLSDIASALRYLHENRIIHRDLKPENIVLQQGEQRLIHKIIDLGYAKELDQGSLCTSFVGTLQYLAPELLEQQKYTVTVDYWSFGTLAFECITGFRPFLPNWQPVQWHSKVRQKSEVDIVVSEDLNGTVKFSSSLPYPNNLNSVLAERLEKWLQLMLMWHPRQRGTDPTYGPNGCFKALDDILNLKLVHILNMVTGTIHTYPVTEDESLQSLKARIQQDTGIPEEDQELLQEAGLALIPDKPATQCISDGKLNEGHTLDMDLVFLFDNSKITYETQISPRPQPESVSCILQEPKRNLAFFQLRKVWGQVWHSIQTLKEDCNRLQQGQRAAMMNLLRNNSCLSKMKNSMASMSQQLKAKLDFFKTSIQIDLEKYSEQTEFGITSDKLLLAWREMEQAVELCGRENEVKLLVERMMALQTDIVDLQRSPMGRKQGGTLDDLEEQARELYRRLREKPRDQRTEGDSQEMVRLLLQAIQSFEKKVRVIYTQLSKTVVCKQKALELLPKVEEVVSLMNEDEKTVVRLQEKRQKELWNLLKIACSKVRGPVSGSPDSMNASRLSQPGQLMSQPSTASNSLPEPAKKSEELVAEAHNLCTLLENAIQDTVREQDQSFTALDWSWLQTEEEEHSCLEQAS

[4] = target: T4, panel of 374 wild-type kinases (Homo sapiens, UniProt O43353); conditions: read-out: % Enzyme Activity (relative to DMSO controls), kinase RIPK2
T4 construct: purchased Reaction Biology Corporation
T4 sequence (O43353 whole entry): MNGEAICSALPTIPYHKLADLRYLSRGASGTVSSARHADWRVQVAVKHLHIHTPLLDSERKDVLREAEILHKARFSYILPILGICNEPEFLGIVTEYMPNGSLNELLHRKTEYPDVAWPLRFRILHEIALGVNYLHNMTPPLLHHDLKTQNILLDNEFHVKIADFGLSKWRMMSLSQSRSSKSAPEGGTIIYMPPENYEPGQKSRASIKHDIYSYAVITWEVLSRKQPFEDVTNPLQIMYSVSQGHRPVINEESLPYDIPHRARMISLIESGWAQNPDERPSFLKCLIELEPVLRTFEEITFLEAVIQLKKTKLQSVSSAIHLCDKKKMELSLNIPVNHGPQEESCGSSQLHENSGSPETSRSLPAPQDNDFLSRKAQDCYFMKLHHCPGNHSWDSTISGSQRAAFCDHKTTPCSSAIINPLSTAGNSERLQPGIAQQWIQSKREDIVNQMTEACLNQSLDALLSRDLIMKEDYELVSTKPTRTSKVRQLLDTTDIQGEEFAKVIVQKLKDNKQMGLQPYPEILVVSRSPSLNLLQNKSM

Row | SMILES | remaining activity at 10 µM ([1]; 10 uM) | remaining activity at 10 µM ([2]; 10 uM) | remaining activity at 10 µM ([3]; 10 uM) | remaining activity at 10 µM ([4]; 10 uM) | remaining activity at 5 µM [1] | remaining activity at 5 µM [2] | remaining activity at 5 µM [3] | remaining activity at 5 µM [4]
1 | Cc1sc(C(=O)NC2COC2)cc1-n1cc(NC(=O)Nc2c(F)cccc2Cl)cn1 [Compound 27, 4-(4-(3-(2-chloro-6-fluorophenyl)ureido)-1H-pyrazol-1-yl)-5-methyl-N-(oxetan-3-yl)thiophene-2-carboxamide] | 98% | 105% | 86.8% | 89.3% |  |  |  | 
2 | O=C(Nc1cnn(-c2csc(C(=O)NC3COC3)c2)c1)Nc1c(F)cccc1Cl [Compound 25, 4-(4-(3-(2-chloro-6-fluorophenyl)ureido)-1H-pyrazol-1-yl)-N-(oxetan-3-yl)thiophene-2-carboxamide] |  |  |  |  | 90.2% | 88.1% | 94.7% | 80.2%
3 | O=C(Nc1cnn(-c2csc(C(=O)NC3COC3)c2)c1)Nc1ccccc1Cl [Compound 17, 4-(4-(3-(2-chlorophenyl)ureido)-1H-pyrazol-1-yl)-N-(oxetan-3-yl)thiophene-2-carboxamide] |  |  |  |  | 103% | 110% | 95.6% | 120%
